Test results reported in the NIST ThermoML archive (doi:10.1021/je700521t).

Legend:
[1] = 101.33 kPa, Liquid; for viscosity: Falling or rolling sphere viscometry
[2] = refractive index (Na D-line) (dimensionless); details: 101.33 kPa, Liquid

CCCCn1cc[n+](C)c1.[O-][Cl+3]([O-])([O-])[O-] [1-butyl-3-methylimidazolium perchlorate]
Details | refractive index, [2] | viscosity, [1] [mPa·s]
283.15 K | 1.4763 | 466.36
288.15 K | 1.4751 | 330.8
293.15 K | 1.474 | 241.56
298.15 K | 1.4725 | 180.26
303.15 K | 1.4712 | 137.85
308.15 K | 1.4696 | 107.28
313.15 K | 1.4685 | 85.75
318.15 K | 1.4667 | 69.52
323.15 K | 1.4655 | 57.22
328.15 K | 1.4642 | 47.78
333.15 K | 1.4627 | 39.9
338.15 K | 1.4615 | 34.14
343.15 K | 1.4602 | 29.49
348.15 K | 1.459 | 25.74
353.15 K | 1.4577 | 22.64

[1], Vibrating tube method
Details | mass density [kg/m3]
283.15 K | 1263.5
288.15 K | 1259.9
293.15 K | 1256.2
298.15 K | 1252.7
303.15 K | 1249.2
308.15 K | 1245.7
313.15 K | 1242.2
318.15 K | 1238.8
323.15 K | 1235.3
328.15 K | 1231.9
333.15 K | 1228.4
338.15 K | 1225
343.15 K | 1221.6
348.15 K | 1218.2
353.15 K | 1214.8

CCCCCCCC[n+]1ccn(C)c1.F[B-](F)(F)F [1-methyl-3-octylimidazolium tetrafluoroborate]
Details | mass density, [1] [kg/m3] | refractive index, [2] | viscosity, [1] [mPa·s]
283.15 K | 1124.9 | 1.4363 | 1037
288.15 K | 1121.4 | 1.435 | 718.75
293.15 K | 1117.9 | 1.4336 | 462.9
298.15 K | 1114.4 | 1.4322 | 334.17
303.15 K | 1110.9 | 1.431 | 246.18
308.15 K | 1107.5 | 1.4288 | 191.95
313.15 K | 1104.1 | 1.4271 | 147.92
318.15 K | 1100.7 | 1.426 | 116.38
323.15 K | 1097.3 | 1.425 | 91.95
328.15 K | 1093.9 | 1.4235 | 74.79
333.15 K | 1090.6 | 1.4222 | 60.95
338.15 K | 1087.2 | 1.421 | 50.88
343.15 K | 1083.9 | 1.4195 | 42.06
348.15 K | 1080.5 | 1.418 | 35.78
353.15 K | 1077.2 | 1.4167 | 30.11
358.15 K | 1073.8 | 1.4155 | 25.87
363.15 K | 1070.5 | 1.4142 | 21.57
